According to US20110207705A1, “OVIEDOMYCIN DERIVATIVES, METHOD FOR OBTAINING SAME AND USE THEREOF” (UNIVERSIDAD DE OVIEDO, priority 2008, published 2011):
Read-outs that look alike come from different tables or passages of the source.

Experiments:
MDA-MB-231 (breast) = assay: Anti-tumour activity, sulforhodamine B (SRB) colorimetric cell growth test; assay type: cell-based; conditions: 48 h exposure, read-out: GI50 (concentration at which the compound tested inhibits 50% of the cell growth in comparison with untreated cells)
Protocol: (§1) The OVM derivatives were tested against a series of cell lines from tumours. Cell growth and viability were quantitatively determined with a colorimetric type test, using the reaction with sulforhodamine B (SRB), according to the technique described by Faircloth et al. (Journal of Tissue and Culture Methods 1988, 11, 201-205).
(§2) 96-well microtiter plates are inoculated with cells (5×10^3 cells per well) in aliquots of 195 μl of medium, incubating them for 18 h, in medium without added compound, to allow the cells to adhere to the surface. Next, the compounds to be tested are added, in samples of 5 μl, in a concentration range of 10 to 10^−8 μg/ml, dissolved in DMSO/EtOH (0.2% in PS buffer). After 48 h exposure, the anti-tumour effect is measured using the SRB technique: the cells are fixed by adding 50 μl of cold trichloroacetic acid (50%) (w/v) and it is incubated for 60 min. at 4° C. The plates are washed with deionized water and dried. 100 μl of SRB solution (0.4% w/v in 1% acetic acid) are added to each well, and it is incubated for 10 min. at ambient temperature. The unbound SRB is eliminated, washing with 1% acetic acid. The plates are air dried and the bound colorant is dissolved with Tris buffer. The optical densities are read in an automatic dish spectrophotometer reader at a wavelength of 490 nm.

A549 (lung) = assay: as above; assay type: cell-based; conditions: 48 h exposure, read-out: GI50 (concentration at which the compound tested inhibits 50% of the cell growth in comparison with untreated cells)
Protocol: as §1, §2

HT29 (colon) = assay: as above; assay type: cell-based; conditions: read-out: GI50 (concentration at which the compound tested inhibits 50% of the cell growth in comparison with untreated cells)
Protocol: as §1, §2

tumour cell lines = assay: Anti-tumour activity against the series of tumour cell lines (SRB test); assay type: cell-based; conditions: tumour cell lines of Table 5, in words
Protocol: as §1, §2

[1] = spontaneous dehydration and oxidation; J. Am. Chem. Soc. 1999, 121, 1786-1794; cited from earlier work

Molecule | GI50 (MDA-MB-231 (breast)) [µM] | GI50 (A549 (lung)) [µM] | GI50 (HT29 (colon); 48 h exposure) [µM] | GI50 values (in words) (tumour cell lines) | anti-tumour activity compared with OVM (tumour cell lines) | GI50 (MDA-MB-231 (breast); Homo sapiens) [µM] | GI50 (A549 (lung); Homo sapiens) [µM] | GI50 (HT29 (colon); Homo sapiens, HT-29, 48 h exposure) [µM] | stability [1]
4a,12b-dehydro-UWM6 [formula IX] | 0.65 | 0.77 | 1.85 | submicromolar range | clearly greater activities than that of the OVM |  |  |  | 
5-hydroxy-rabelomycin [formula XII] | 13.3 | 7.62 | 12.4 |  |  |  |  |  | 
CC1=CC(=O)[C@@H]2c3cc4cccc(O)c4c(O)c3C(=O)C[C@]2(O)C1 [formula X, prejadomycin] | 0.24 | 0.29 | 1.29 | submicromolar range | clearly greater activities than that of the OVM |  |  |  | 
C[C@]1(O)CC(=O)c2c(cc(O)c3c2C(=O)c2cccc(O)c2C3=O)C1 [formula VI, rabelomycin] |  |  |  |  |  | 6.8 | 5.32 | 10.9 | 
C[C@]1(O)CC(=O)C2c3cc4cccc(O)c4c(O)c3C(=O)C[C@]2(O)C1 (stereo partly shown) [formula XI, UWM6] | 24.8 | > 100 | > 100 |  |  |  |  |  | unstable and spontaneously becomes rabelomycin
Cc1cc(O)c2c3c(c(O)c(O)c2c1)C(=O)c1c(O)cccc1C3=O [formula VIII, 5-hydroxy-dehydro-rabelomycin] | 2.56 | 6.24 | 8.03 |  |  |  |  |  | 
prejadomycin 2-carboxylate [formula VII] | 0.38 | 0.6 | 1.17 | submicromolar range | clearly greater activities than that of the OVM |  |  |  | 
Cc1c(O)c2cc(O)c3c(=O)c4c(O)cccc4c(=O)c3c2c(=O)c1=O [OVM, Oviedomycin] | 5.6 | 8.7 | 6.9 |  |  |  |  |  | 
C[C@]1(O)CC(=O)c2c(cc(O)c3c2C(=O)c2ccc(O)c(O)c2C3=O)C1 [formula XIII, 9-hydroxy-rabelomycin] | 7.06 | 3.1 | 14.1 |  |  |  |  |  | 
